From patent EP2140864A2 (H. Lundbeck A/S, priority 2001, dated 2002)
Read-outs that look alike come from different tables or passages of the source.

Key:
human α1B adrenoceptor = target: T1, human α1B adrenoceptor (Homo sapiens, UniProt P35368); assay: Radioligand binding, α1B adrenergic receptor
T1 construct: expressed in transfected cells
T1 sequence (P35368 1-520): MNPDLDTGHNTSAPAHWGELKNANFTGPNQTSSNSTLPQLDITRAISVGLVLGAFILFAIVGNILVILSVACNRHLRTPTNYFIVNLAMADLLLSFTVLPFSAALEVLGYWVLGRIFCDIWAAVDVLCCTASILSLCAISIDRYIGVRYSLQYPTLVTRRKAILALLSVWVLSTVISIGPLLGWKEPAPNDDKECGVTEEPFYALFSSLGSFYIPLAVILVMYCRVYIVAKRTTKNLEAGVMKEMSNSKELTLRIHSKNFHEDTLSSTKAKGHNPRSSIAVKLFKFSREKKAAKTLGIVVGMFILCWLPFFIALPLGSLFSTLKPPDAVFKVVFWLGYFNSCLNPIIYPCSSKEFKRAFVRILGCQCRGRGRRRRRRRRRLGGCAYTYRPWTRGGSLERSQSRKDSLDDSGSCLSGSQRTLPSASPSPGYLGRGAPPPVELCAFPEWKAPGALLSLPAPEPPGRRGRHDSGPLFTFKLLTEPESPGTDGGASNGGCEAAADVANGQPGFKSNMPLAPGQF

human α1A adrenoceptor = target: T2, human α1A adrenoceptor (Homo sapiens, UniProt P35348); assay: Radioligand binding, α1A adrenergic receptor
T2 construct: expressed in transfected cells
T2 sequence (P35348 1-466): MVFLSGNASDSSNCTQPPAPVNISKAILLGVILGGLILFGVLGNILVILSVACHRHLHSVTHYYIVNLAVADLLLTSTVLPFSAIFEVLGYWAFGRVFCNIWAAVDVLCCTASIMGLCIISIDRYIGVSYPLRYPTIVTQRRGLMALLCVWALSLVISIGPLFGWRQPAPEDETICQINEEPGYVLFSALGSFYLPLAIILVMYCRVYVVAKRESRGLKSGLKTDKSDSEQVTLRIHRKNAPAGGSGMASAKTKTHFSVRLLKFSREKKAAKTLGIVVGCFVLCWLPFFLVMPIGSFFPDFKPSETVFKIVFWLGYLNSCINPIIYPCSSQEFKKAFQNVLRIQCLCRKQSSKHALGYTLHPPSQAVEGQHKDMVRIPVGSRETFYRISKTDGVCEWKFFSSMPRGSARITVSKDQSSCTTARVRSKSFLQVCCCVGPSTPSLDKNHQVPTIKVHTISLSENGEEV
Text: (§1) Other receptors: Cell membranes expressing human dopamine D1, D2, D4 and rat D3 receptors were purchased through BioSignal, Inc. (Montreal, Canada). Binding assays using the histamine H1 receptor; dopamine receptors; and α1A, α1E, and α2 adrenergic receptors may be carried out according to the procedures described in U.S. Patent No. 5,780,485, the disclosure of which is hereby incorporated by reference in its entirety into this application. Binding assays using the dopamine D5 receptor may be carried out according to the procedures described in U.S. Patent No. 5,882,855, the disclosure of which is hereby incorporated by reference in its entirety into this application. Binding assays for the human α1D adrenergic receptor may be carried out according to the procedures described in U.S. Patent No. 6,156,518, the disclosure of which is hereby incorporated by reference in its entirety into this application.
(§2) Binding data were analyzed using nonlinear regression and statistical techniques available in the GraphPAD Prism package (San Diego, CA). Enzymatic assay data were derived from a standard curve of reference compound data.

human 5HT7 = target: T3, human 5HT7 (Homo sapiens, UniProt P34969); assay: Radioligand binding, 5HT7 receptor ([3H]-serotonin)
T3 construct: expressed in transfected cells
T3 sequence (P34969 1-445 isoform P34969-2): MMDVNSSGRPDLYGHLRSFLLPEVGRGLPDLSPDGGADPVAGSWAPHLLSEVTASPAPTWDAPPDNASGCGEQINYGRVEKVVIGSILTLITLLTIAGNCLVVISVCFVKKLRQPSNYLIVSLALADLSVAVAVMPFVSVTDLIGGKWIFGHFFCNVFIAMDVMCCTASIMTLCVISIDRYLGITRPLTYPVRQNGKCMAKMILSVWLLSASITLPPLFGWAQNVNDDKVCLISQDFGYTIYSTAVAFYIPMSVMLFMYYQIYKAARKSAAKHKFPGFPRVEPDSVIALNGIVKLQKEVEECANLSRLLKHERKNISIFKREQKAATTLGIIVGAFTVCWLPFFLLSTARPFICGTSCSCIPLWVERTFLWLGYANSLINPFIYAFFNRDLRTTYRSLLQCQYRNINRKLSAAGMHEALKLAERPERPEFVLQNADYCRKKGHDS
Experimental: Human 5HT1B, 5HT1D, 5HT1E, 5HT1F, and 5HT7 Receptors: The cell lysates of LM(tk-) clonal cell line stably transfected with the genes encoding each of these 5HT receptor-subtypes were prepared as described above. Cell membranes were suspended in 50mM Tris-HCl buffer (pH 7.4 at 37°C) containing 10 mM MgCl2, 0.2 mM EDTA, 10 µM pargyline, and 0.1% ascorbate. […] Nonspecific binding was determined in the presence of 10 µM serotonin. The bound radioligand was separated by filtration through GF/B filters using a cell harvester.
as §2

rat 5HT2C receptor = target: T4, rat 5HT2C receptor (Rattus norvegicus, UniProt P08909); assay: Radioligand binding, 5HT2C receptor
T4 construct: expressed in transfected cells
T4 sequence (P08909 33-460): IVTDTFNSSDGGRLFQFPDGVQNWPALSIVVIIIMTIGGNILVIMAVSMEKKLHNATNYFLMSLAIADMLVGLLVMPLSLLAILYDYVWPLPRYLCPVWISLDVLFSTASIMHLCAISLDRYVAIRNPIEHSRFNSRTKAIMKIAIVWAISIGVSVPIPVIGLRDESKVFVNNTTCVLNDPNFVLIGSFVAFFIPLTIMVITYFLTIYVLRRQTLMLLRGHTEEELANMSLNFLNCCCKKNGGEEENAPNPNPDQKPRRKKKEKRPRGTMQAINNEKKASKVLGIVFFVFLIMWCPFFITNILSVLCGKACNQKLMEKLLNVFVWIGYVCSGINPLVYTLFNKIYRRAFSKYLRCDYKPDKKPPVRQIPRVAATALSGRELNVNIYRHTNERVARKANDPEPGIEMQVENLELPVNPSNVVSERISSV
Experimental: Other 5-HT Receptors: Other serotonin receptor binding assays were performed according to published methods: rat 5HT2C receptor (Julius et al., 1988); and 5-HT6 (Monsma, et al., 1993). The binding assays using the 5-HT4 receptor were performed according to the procedures described in U.S. Patent No. 5,766,879, the disclosure of which is hereby incorporated by reference in its entirety into this application.
as §2

human α2A adrenoceptor = target: T5, human α2A adrenoceptor (Homo sapiens, UniProt P08913); assay: Radioligand binding, α2A adrenergic receptor
T5 construct: expressed in transfected cells
T5 sequence (P08913 1-465): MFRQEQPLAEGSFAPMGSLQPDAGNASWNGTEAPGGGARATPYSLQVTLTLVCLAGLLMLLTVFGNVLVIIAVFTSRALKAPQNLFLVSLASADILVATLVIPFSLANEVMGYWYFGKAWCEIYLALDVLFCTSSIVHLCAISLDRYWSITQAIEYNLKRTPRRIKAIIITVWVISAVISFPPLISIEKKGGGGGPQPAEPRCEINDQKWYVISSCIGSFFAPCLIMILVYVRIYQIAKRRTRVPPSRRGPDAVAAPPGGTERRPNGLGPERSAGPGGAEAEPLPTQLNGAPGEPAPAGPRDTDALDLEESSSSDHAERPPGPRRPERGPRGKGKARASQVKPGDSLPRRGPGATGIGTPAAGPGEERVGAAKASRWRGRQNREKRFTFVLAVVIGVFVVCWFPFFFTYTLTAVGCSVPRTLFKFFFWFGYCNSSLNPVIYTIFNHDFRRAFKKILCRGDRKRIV
Text: as §1, §2

[1] = Table 10; Ki hα1B divided by Ki hGAL3
[2] = Table 10; Ki hα1A divided by Ki hGAL3
[3] = Table 8; Ki h5HT7 divided by Ki hGAL3
[4] = Table 8; Ki r5HT2C divided by Ki hGAL3
[5] = Table 10; Ki hα2A divided by Ki hGAL3

SMILES	Ki (human α1B adrenoceptor; Table 9; read-out: hα1B Ki)	selectivity ratio hα1B (human α1B adrenoceptor; [1])	Ki (human α1A adrenoceptor; Table 9; read-out: hα1A Ki)	selectivity ratio hα1A (human α1A adrenoceptor; [2])	Ki (human 5HT7; Table 7; read-out: h5HT7 Ki)	selectivity ratio h5HT7 (human 5HT7; [3])	Ki (rat 5HT2C receptor; Table 7; read-out: r5HT2C Ki)	selectivity ratio r5HT2C (rat 5HT2C receptor; [4])	Ki (human α2A adrenoceptor; Table 9; read-out: hα2A Ki)	selectivity ratio hα2A (human α2A adrenoceptor; [5])	Ki (human α1B adrenoceptor; read-out: hα1B Ki; Table 9)	Ki (human α1A adrenoceptor; read-out: hα1A Ki; Table 9)	Ki (human 5HT7; read-out: h5HT7 Ki; Table 7)	Ki (rat 5HT2C receptor; read-out: r5HT2C Ki; Table 7)	Ki (human α2A adrenoceptor; read-out: hα2A Ki; Table 9)
Cc1ccc(Nc2cc(N3CCCCC3)nc(N(C)CCc3c[nH]c4ccccc34)n2)cc1 [Example 11]	1.44 µM	16	0.926 µM	10	1.01 µM	11	0.802 µM	9	1.82 µM	20					
CN(CCc1c[nH]c2ccccc12)c1nc(Nc2ccc(F)c(F)c2)cc(N2CCCCC2)n1 [Example 15]	0.853 µM	12	3.39 µM	46	2.53 µM	>30	0.572 µM	8	14.4 µM	>100					
COc1cccc(Nc2cc(N3CCCCC3)nc(N(C)CCc3c[nH]c4ccccc34)n2)c1 [Example 17]	1.17 µM	13	0.996 µM	11	1.8 µM	21	0.562 µM	6	3.52 µM	>30					
Cc1ccc(Nc2cc(N3CCCCC3)nc(N(C)CCc3ccccc3)n2)cc1 [Example 22]	1.58 µM	>30	1.28 µM	>30	2.67 µM	>30	1.72 µM	>30	0.906 µM	>30					
Cc1ccc(Nc2cc(N3CCCCC3)nc(N3CCN(c4ncccc4C(F)(F)F)CC3)n2)cc1 [Example 34]	15 µM	>100	3.76 µM	>100	4.44 µM	>100	2.08 µM	>30	3.68 µM	>100					
COC[C@@H]1[C@@H](c2ccccc2)OCCN1c1nc(Nc2ccc(C)cc2)cc(N2CCCCC2)n1 [Example 49]		>30		>30		>30		>30		22	18.9 µM	6.65 µM	12.3 µM	6.69 µM	4.73 µM
CN(C)c1cc(Nc2ccc(Cl)c(Cl)c2)nc(Nc2ccccc2)n1 [Example 60]	40.6 µM	>100	13.6 µM	>100	3.24 µM	>30	1.78 µM	21	10.8 µM	>100					
Cc1ccc(Nc2cc(N(C)C)nc(N(C)CCc3c[nH]c4ccccc34)n2)cc1 [Example 77]	0.452 µM	6	0.834 µM	11	1.55 µM	20	0.456 µM	6	0.315 µM	4					
O=C1C(=Nc2cccc(C(F)(F)F)c2)c2ccccc2N1c1ccccc1 [Example 92, 1-PHENYL-3- [[3-(TRIFLUOROMETHYL)PHENYL]IMINO]-1,3-DIHYDRO-2H-INDOL-2-ONE]		>100								>100					
O=C1C(=Nc2cccc(Cl)c2)c2ccccc2N1c1ccccc1 [Example 94, 3-[(3-CHLOROPHENYL)IMINO]-1-PHENYL-1,3-DIHYDRO-2H-INDOL-2-ONE]	31.1 µM	>100	12.7 µM	>100	8.02 µM	>100	4.1 µM	>30	12.7 µM	>100					
